Laboratory results from the CheMixHub viscosity set.

Test: xn = mol fraction of the nth substance listed
Conditions: 101 kPa

Cc1cccc(C)c1 + CCCCCCO
Conditions | viscosity [mPa·s]
303.15 K, x2 = 0.2002 | 0.683
313.15 K, x2 = 0.5 | 0.965
323.15 K, x2 = 0.4001 | 0.693

NCCCO + CCCCCCn1cc[n+](C)c1.F[B-](F)(F)F
Conditions | viscosity [mPa·s]
303.15 K, x2 = 0.3217 | 34.55
308.15 K, x2 = 0.4942 | 36.45

O=S1(=O)CCCC1 + CCCCCO
viscosity [mPa·s]
Conditions | x1 = 0.1119 | x1 = 0.2324 | x1 = 0.3323 | x1 = 0.4328 | x1 = 0.5236 | x1 = 0.6267 | x1 = 0.7208 | x1 = 0.8145 | x1 = 0.9043
303.15 K | 2.686 | 2.749 | 2.951 | 3.218 | 3.489 | 3.956 | 4.594 | 5.618 | 7.273
308.15 K | 2.366 | 2.416 | 2.578 | 2.807 | 3.082 | 3.491 | 4.077 | 4.986 | 6.441
313.15 K | 2.096 | 2.14 | 2.278 | 2.479 | 2.729 | 3.111 | 3.644 | 4.454 | 5.735

Cc1ccc(O)cc1 + CCCCN(CCCC)CCCC
298.16 K
Conditions | viscosity [mPa·s]
x1 = 0.5103 | 5.579
x1 = 0.5404 | 5.375
x1 = 0.5979 | 9.34
x1 = 0.6392 | 17.64
x1 = 0.6996 | 33.29
x1 = 0.7333 | 51.5
x1 = 0.7543 | 67.62
x1 = 0.7729 | 84.91
x1 = 0.7927 | 101.9
x1 = 0.8108 | 118
x1 = 0.8352 | 127.1
x1 = 0.8549 | 122.8
x1 = 0.8734 | 104.8
x1 = 0.893 | 82.05
x1 = 0.9161 | 61.96
x1 = 0.9375 | 42.17
x1 = 0.9497 | 33.73
x2 = 0.005161 | 13.13

Cc1ccc(O)cc1 + CCCCNCCCC
298.16 K
Conditions | viscosity [mPa·s]
x1 = 0.4487 | 3.678
x1 = 0.4877 | 5.428
x1 = 0.5489 | 7.609
x1 = 0.5951 | 11.91
x1 = 0.6192 | 13.62
x1 = 0.6457 | 16.41
x1 = 0.6924 | 28.49
x1 = 0.7098 | 33.96
x1 = 0.7329 | 43.07
x1 = 0.7632 | 61.06
x1 = 0.7959 | 79.23
x1 = 0.833 | 89.65
x1 = 0.8754 | 78.76
x1 = 0.902 | 60.59
x1 = 0.9421 | 33.43
x2 = 0.001967 | 12.1
x2 = 0.003431 | 17.88
x2 = 0.015 | 18.21

C1CC[NH2+]C1.CCCCCCCC(=O)[O-] + CCCCO
viscosity [mPa·s]
Conditions | x1 = 0.1198 | x1 = 0.2524 | x1 = 0.3299 | x1 = 0.4745 | x1 = 0.6187 | x1 = 0.7174 | x1 = 0.7912 | x1 = 0.9269
293.15 K | 5.39 | 10.82 | 13.21 | 22.51 | 34.14 | 44.35 | 51.93 | 65.75
298.15 K | 6.9 | 10.82 | – | 21.6 | 30.39 | 38.92 | 44.89 | 57.02
303.15 K | 4.75 | 8.64 | 11.15 | 17 | 24.8 | 31.23 | 35.44 | 45.4
308.15 K | 4.32 | 7.79 | 10.03 | 14.95 | 21.43 | 26.63 | 29.97 | 38.73
313.15 K | 3.6 | 6.6 | 8.5 | 13 | 17.8 | 21.5 | 25.3 | 31.7

CCC(C)O (stereo unspecified) + CCCCO
Conditions | viscosity [mPa·s]
303.15 K, x2 = 0.8988 | 2.875

Nc1ccccc1Cl + CCCCO
viscosity [mPa·s]
Conditions | x1 = 0.0883 | x1 = 0.1789 | x1 = 0.2719 | x1 = 0.3675 | x1 = 0.4656 | x1 = 0.5666 | x1 = 0.6703 | x1 = 0.7771 | x1 = 0.8869
303.15 K | 2.47 | 2.66 | 2.83 | 3 | 3.16 | 3.31 | 3.44 | 3.57 | 3.69
308.15 K | 2.21 | 2.39 | 2.55 | 2.71 | 2.85 | 2.98 | 3.1 | 3.22 | 3.32
313.15 K | 1.98 | 2.16 | 2.31 | 2.45 | 2.58 | 2.7 | 2.82 | 2.92 | 3
318.15 K | 1.79 | 1.96 | 2.1 | 2.23 | 2.35 | 2.46 | 2.57 | 2.67 | 2.74

O=S1(=O)CCCC1 + CCCCO
viscosity [mPa·s]
Conditions | x1 = 0.1066 | x1 = 0.191 | x1 = 0.2871 | x1 = 0.3889 | x1 = 0.4851 | x1 = 0.5891 | x1 = 0.6937 | x1 = 0.7935 | x1 = 0.9023
303.15 K | 2.084 | 2.148 | 2.32 | 2.582 | 2.914 | 3.395 | 4.117 | 5.218 | 7.192
308.15 K | 1.855 | 1.912 | 2.06 | 2.291 | 2.59 | 3.028 | 3.676 | 4.65 | 6.369
313.15 K | 1.659 | 1.711 | 1.842 | 2.048 | 2.316 | 2.715 | 3.3 | 4.167 | 5.669
